{"source": "patent US10905761B2", "about": "“Use of a lipopeptide or lipoprotein as an adjuvant in therapeutic or prophylactic vaccinations” (HELMHOLTZ-ZENTRUM FUER INFEKTIONSFORSCHUNG GMBH, priority 2002, dated 2021)", "assay_type_in_all_cases": "in vivo", "key": {"BALB/c (H-2d) mice [1]": {"tested_on": "BALB/c (H-2d) mice", "experiment": "Humoral responses after immunization by various routes with MALP-2 as adjuvant (serum β-galactosidase-specific antibody ELISA, Example 2)", "conditions": "day 28", "protocol": "Mice were immunized by subcutaneous (s.c.), intraperitoneal (i.p.), intradermal (i.d.) and intranasal (i.n.) routes with either pure β-galactosidase (40 μg) or β-galactosidase mixed with MALP-2 (0.5 μg) on days 0, 7 and 14. On day 28 after the primary immunization, serum samples were removed and the titer of β-galactosidase-specific antibodies was determined by means of an ELISA. The results are shown as reciprocal log2 of the geometric mean of the endpoint titer. As a control, we included a group in which the animals were immunized by the route with β-galactosidase using aluminum hydroxide as adjuvant.\nMice were immunized by the intraperitoneal (i.p.) and intranasal (i.n.) route with either pure β-galactosidase (40 μg/dose) or β-galactosidase mixed with MALP-2 (1 μg/dose) on days 0, 7 and 14. On day 28 after the primary immunization, serum samples were taken and the titer of β-galactosidase-specific antibodies was determined by means of an ELISA. The results are shown as absorbances (OD […]).\nSix- to eight-week old female BALB/c (H-2d) mice were purchased from Harlan Winkelmann GmbH (Borchen, Germany) and treated in accordance with local and EU directives. Groups each of 5 mice were immunized on day 1, 7 and 14 either with 40 μg of pure β-galactosidase (Boehringer, Mannheim, Germany), or with admixture of 1 or 0.5 μg of synthetic MALP-2. For the intranasal administration (i.n.), 10 μl was administered into each nostril, whereas for i.p., s.c. and i.d. injection β-galactosidase was resuspended with or without MALP-2 in respectively 400, 100 and 100 μl of PBS. 28 days after the first immunization, serum samples were taken and stored at −20° C. until the β-gal-specific antibodies were determined. Nunc-Immuno MaxiSorp assay plates with 96 wells (Nunc, Roskilde, Denmark) were coated with 100 μl of β-galactosidase (Boehringer, Mannheim, Germany) with 5 μg/ml in 0.05 M carbonate buffer (pH 8.2) per well. Serum dilutions with 1% BSA and 0.05% Tween-20 in PBS were added ([…]), and the plates were incubated at 37° C. for 24 hours. […]"}, "BALB/c (H-2d) mice [2]": {"tested_on": "BALB/c (H-2d) mice", "experiment": "Kinetics of β-gal-specific IgG responses in sera of mice immunized i.n. or i.p. (Example 4)", "protocol": "Groups of animals (n=5) were immunized either i.n. (A) or i.p. (B) with 50 μg of β-gal ( ), β-gal plus 10 μg of CTB ( ), β-gal plus 0.5 μg of MALP-2 ( ) or pure buffer solution ( ). The days of the immunizations (day 0, 14 and 21) are marked by arrows. The results are shown as the reciprocal log2 of the geometric endpoint titer, and the SEM […] is indicated by means of vertical lines.\nSix- to eight-week old female BALB/c (H-2d) mice were purchased from Harlan Winkelmann GmbH (Borchen, Germany) and treated in accordance with local and EU directives. Groups each of 5 mice were immunized on day 1, 14 and 21 either with 40 μg of pure β-galactosidase (Boehringer, Mannheim, Germany) with admixture of 0.5 μg of synthetic MALP-2 or 10 μg of cholera toxin B subunit (CTB; ICN Biomedicals Inc., Ohio) as standard adjuvant. For intranasal administration (i.n.), 10 μl were administered into each nostril, while for the i.p. injection β-galactosidase was resuspended with or without MALP-2 in 400, 100 or 100 μl of PBS. Serum samples were taken at various times (day 0, 13, 20 and 30) and stored at −20° C. until the β-galactosidase-specific antibodies were determined. Nunc-Immuno MaxiSorp assay plates with 96 wells (Nunc, Roskilde, Denmark) were coated with 100 μl of β-gal (Boehringer, Mannheim, Germany) with 5 μg/ml in 0.05 M […] (pH 8.2) per well. Serial two-fold dilutions of the sera or lavages in PBS with 1% BSA and 0.05% Tween-20 were added (100 μl/well) and the plates were incubated at 37° C. for 24 hours. After rinsing, biotinylated γ chain-specific goat anti-mouse IgG (Sigma Chemie, Deisenhofen, Germany) was added, and the plates were incubated at 37° C. for a further hour. After rinsing four times, 100 μl of peroxidase-conjugated streptavidin (Pharmingen) were added to the […], and the plates were incubated at 37° C. for 30 minutes. After rinsing four times, the reactions were developed by means of ABTS in 0.1 M citrate-phosphate buffer (pH 4.35) which contained 0.01% H2O2."}, "BALB/c (H-2d) mice [3]": {"tested_on": "BALB/c (H-2d) mice", "experiment": "β-Galactosidase-specific T-cell proliferation of spleen and regional lymph node cells of immunized mice (Example 7)", "protocol": "The cells were restimulated in vitro with various concentrations of soluble β-galactosidase for four days. The results are shown as average cpm subtracted from the background values for unstimulated cells from groups of three. The SEM is depicted by vertical lines.\nLymph nodes located below the lower jaw and the spleens were removed and put together for the analysis of the cellular immune responses. The cells were grown in RPMI 1640 supplemented by 10% fetal calf serum, 10 U/ml penicillin, 50 μg/ml streptomycin, 5×10^−5 M 2-mercaptoethanol and 1 mM L-glutamine (GIBCO BRL, Karlsruhe, Germany) and stored at 37° C. in a moist atmosphere with 5% CO2. The suspensions of lymph node and spleen cells were adjusted to 5×10^6 cells/ml in complete medium and put in a flat-bottomed 96-well microtiter plate (Nunc) with 100 μl/well, and the plates were incubated in the presence of various concentrations of soluble β-galactosidase for 4 days. Each concentration was tested in groups of three. During the last 18 hours of the incubation, 1 ρCi of [^3H]thymidine (Amersham International, Freiburg, Germany) was added to each well. The cells were then harvested on filter paper (Filtermat A; Wallac, Freiburg, Germany) using a cell harvester (Inotech, Wohlen, Switzerland), and the amount of incorporated [^3H]thymidine in the DNA of the proliferated cells was determined with the aid of a […] (Wallac 1450, Micro-Trilux). The results have been shown as the arithmetic mean of the uptake of [^3H]thymidine in cpm."}}, "note": "“Also recorded” adds a separate entry of the source. No end group written: not given here.", "data": [{"substance": "S-[2,3-bispalmitoyloxypropyl]cysteinyl-GNNDESNISFKEK ({S‑(2,3-bispalmitoyloxypropyl)Cys}-GNNDESNISFKEK) [MALP-2]", "values": [{"measurement": "antibody responses compared with aluminum hydroxide as standard adjuvant for s.c. injection", "setting": "BALB/c (H-2d) mice [1]; 0.5 μg MALP-2, s.c., i.p., i.d., i.n.", "result": "at least as strong as (i.d.) or stronger"}, {"measurement": "adjuvant effect on β-galactosidase-specific serum antibodies", "setting": "BALB/c (H-2d) mice [1]; 0.5 μg MALP-2 mixed with 40 μg β-galactosidase, s.c., i.p., i.d., i.n.", "result": "significant increase; also recorded: strong adjuvant effect"}, {"measurement": "adjuvant effect on β-galactosidase-specific serum antibodies at higher dose", "setting": "BALB/c (H-2d) mice [1]; 1 μg MALP-2, i.p. and i.n.", "result": "abolition of the adjuvant effect"}, {"measurement": "kinetics and overall efficacy of antibody responses compared with 10 μg CTB", "setting": "BALB/c (H-2d) mice [2]; 0.5 μg MALP-2 versus 10 μg CTB, i.n.", "result": "very similar"}, {"measurement": "increase of β-galactosidase-specific IgG serum titers", "setting": "BALB/c (H-2d) mice [2]; i.p., 0.5 μg per animal per dose, versus pure β-galactosidase", "result": 100, "unit": "fold"}, {"measurement": "titers of specific IgG at the end of the immunization protocol", "setting": "BALB/c (H-2d) mice [2]; β-galactosidase with 0.5 μg MALP-2 i.n.", "result": "above 500,000"}, {"measurement": "titers of specific IgG in serum after a single dose", "setting": "BALB/c (H-2d) mice [2]; β-galactosidase with 0.5 μg MALP-2 i.n., single dose", "result": "> 60,000"}, {"measurement": "T-cell proliferation / cellular response compared with CTB as adjuvant", "setting": "BALB/c (H-2d) mice [3]; 0.5 μg MALP-2 versus 10 μg CTB, i.n., p<0.05", "result": "statistically significant (p<0.05) increase in T-cell proliferation; also recorded: distinctly higher proliferation"}, {"measurement": "proliferation of lymph node and spleen cells after in vitro restimulation with β-galactosidase", "setting": "BALB/c (H-2d) mice [3]; i.n. immunization, day 31", "result": "efficient proliferation response"}, {"measurement": "proliferation of spleen cells after in vitro restimulation with β-galactosidase", "setting": "BALB/c (H-2d) mice [3]; i.p. immunization, day 31", "result": "further increase in proliferation"}]}]}
